Read-outs that look alike come from different tables or passages of the source.
Columns and labels:
D4 human receptors = target: T1, D4 human receptors (Homo sapiens, UniProt P21917); assay: D4 Radioligand Receptor Binding Assay ([3H] YM-09151-2, CHO cell membranes); details: compound 10^−7 M, singlicate, [3H] YM-09151-2 0.15-0.25 nM
T1 construct: expressed in transfected cells; host or cells: CHO cells
T1 sequence (P21917 1-419): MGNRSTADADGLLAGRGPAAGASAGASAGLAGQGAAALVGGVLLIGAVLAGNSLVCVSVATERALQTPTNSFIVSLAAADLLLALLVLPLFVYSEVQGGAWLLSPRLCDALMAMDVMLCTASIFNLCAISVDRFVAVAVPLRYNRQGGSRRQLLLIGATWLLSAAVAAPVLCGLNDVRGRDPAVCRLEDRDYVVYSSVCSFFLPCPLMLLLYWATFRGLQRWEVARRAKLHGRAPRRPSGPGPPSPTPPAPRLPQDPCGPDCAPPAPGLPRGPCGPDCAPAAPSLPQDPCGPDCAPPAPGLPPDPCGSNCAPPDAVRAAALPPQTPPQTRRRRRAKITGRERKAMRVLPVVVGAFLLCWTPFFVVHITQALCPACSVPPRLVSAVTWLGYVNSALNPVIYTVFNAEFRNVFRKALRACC
Protocol: D4 Radioligand Receptor Binding Assay
Membranes from CHO cells expressing D4 human receptors, were suspended in incubation buffer.
Binding assays were performed in MultiProbe 204 pipetting system (Packard), according to a predetermined mapping, consistent with the software Screen. The compounds were tested in singlicate at one concentration (10^−7 M) in a total volume of 1000 μl (980 μl of diluted membranes, 10 μl DMSO or unlabelled ligand and 10 μl of [^3H] YM-09151-2 (0.15-0.25 nM). After incubation for 120 minutes at 27° C., the reaction was stopped by rapid filtration through Tomtec Cell Harvester (48 wells) using Filtermat B (presoaked in 0.1% PEI) filters. Filters were washed with ice-cold 50 mM Tris-HCl (pH 7.4) buffer (9×700 μl), dried, covered with MeltiLex B/HS (Wallac) scintillator sheets and heated in oven at 80° C. to 90° C. for about 10 minutes, transferred into plastic sample bags (Wallac), sealed, and put into 1024 Beta Plate scintillation counter (Wallac). Non-specific binding was determined in the presence of clozapine dissolved in DMSO to a final concentration of 10^−5 M.
(§1) The specific radioligand binding to the receptor was defined by the difference between total binding and non-specific binding, determined in the presence of an excess of unlabelled ligand. Results were expressed as percentage of control specific binding obtained in the presence of the compounds.

5-HT1A = target: T2, 5-HT1A (Homo sapiens, UniProt P08908); assay: 5HT1A Radioligand Receptor Binding Assay ([3H]-8-OH-DPAT, CHO cell membranes); design: expressed in transfected cells; host or cells: CHO cells; details: for 5-HT1A Receptor Binding Assay % inhibition (10^−7 M): compound 10^−7 M, singlicate, [3H]-8-OH-DPAT 0.6-0.7 nM
T2 sequence (P08908 1-422): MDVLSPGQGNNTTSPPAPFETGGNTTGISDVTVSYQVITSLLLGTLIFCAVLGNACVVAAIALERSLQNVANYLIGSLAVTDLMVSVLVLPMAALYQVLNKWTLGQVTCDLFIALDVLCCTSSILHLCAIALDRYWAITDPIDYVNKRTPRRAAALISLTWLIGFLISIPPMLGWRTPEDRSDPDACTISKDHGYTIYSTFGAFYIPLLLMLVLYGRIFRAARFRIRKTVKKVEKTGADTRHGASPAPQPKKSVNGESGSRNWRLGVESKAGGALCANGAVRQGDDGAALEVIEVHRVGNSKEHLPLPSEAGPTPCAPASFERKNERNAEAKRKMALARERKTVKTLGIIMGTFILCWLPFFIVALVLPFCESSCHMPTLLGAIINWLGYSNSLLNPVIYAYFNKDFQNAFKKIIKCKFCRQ
Protocol: 5HT1A Radioligand Receptor Binding Assay
Membranes from CHO cells, expressing 5-HT1A human receptors were suspended in incubation buffer.
Binding assays were performed in MultiProbe 204 pipetting system (Packard), according to a predetermined mapping, consistent with the software Screen. The compounds were tested in singlicate at one concentration (10^−7 M) in a total volume of 1000 μl. 980 μl of diluted membranes, 10 μl DMSO or unlabelled ligand and 10 μl of [^3H]-8-OH-DPAT (0.6-0.7 nM) were incubated for 60 minutes at 27° C. The reaction was stopped by rapid filtration through Tomtec Cell Harvester (48 wells) using Filtermat B (presoaked in 0.1% PEI) filters. Filters were washed with ice-cold 50 mM Tris-HCl (pH 7.4) buffer (9×700 μl), dried, covered with MeltiLex B/HS scintillator sheets (Wallac) and heated at 80° C. to 90° C. for about 10 minutes, transferred into plastic sample bags (Wallac), sealed, and put into 1024 Beta Plate scintillation counter (Wallac). Non-specific binding was determined in the presence of 5-HT (10^−5 M).
as §1, with “compounds. The affinity values (IC50) for the compounds were obtained by a nonlinear least squares regression analysis on the basis of a one binding site model.” for “compounds.”

[1] = [3H]-8-OH-DPAT, CHO membranes, human 5-HT1A, read-out: 5-HT1A Receptor Binding IC50

| SMILES | D4 Receptor Binding Assay % inhibition (10^−7 M) (D4 human receptors) | 5-HT1A Receptor Binding Assay % inhibition (10^−7 M) (5-HT1A; CHO membranes, human 5-HT1A) | IC50 (5-HT1A; [1]) | IC50 (5-HT1A) |
| --- | --- | --- | --- | --- |
| COCCn1c(=O)n(CCCCN2CCN(c3ccccc3)CC2)c2ccccc21 [Compound 1] | 38% | 56% |  |  |
| COCCn1c(=O)n(CCCCN2CCc3c([nH]c4ccccc34)C2)c2ccccc21 [Compound 7] | 91% | 77% |  |  |
| COCCn1c(=O)n(CCCCN2CC=C(c3ccccc3)CC2)c2ccccc21 [Compound 10] | 47% | 60% |  |  |
| COCCn1c(=O)n(CCCCN2CCN(c3ccc(Cl)c(Cl)c3)CC2)c2ccccc21 [Compound 11] | 90% | 48% |  |  |
| COCCn1c(=O)n(CCCCN2CCN(c3ccccc3OC)CC2)c2ccccc21 [Compound 19] | 32% | 69% |  |  |
| O=c1n(CCCCN2CCN(c3ccccc3)CC2)c2ccccc2n1CCN1CCCCC1 [Compound 20] | 60% | 50% |  |  |
| O=c1n(CCCCN2CCN(c3ccccn3)CC2)c2ccccc2n1CCN1CCCCC1 [Compound 23] | 48% | 73% |  |  |
| O=c1n(CCCCN2CCN(c3cccc(Cl)c3)CC2)c2ccccc2n1CCN1CCCCC1 [Compound 24] | 67% | 90% |  |  |
| O=c1n(CCCCN2CCN(c3ncccn3)CC2)c2ccccc2n1CCN1CCCCC1 [Compound 25] | 44% | 48% |  |  |
| O=c1n(CCCCN2CCc3c([nH]c4ccccc34)C2)c2ccccc2n1CCN1CCCCC1 [Compound 26] | 94% | 70% |  |  |
| O=c1n(CCCCN2CCN(c3cccc(C(F)(F)F)c3)CC2)c2ccccc2n1CCN1CCCCC1 [Compound 28] | 35% | 89% |  |  |
| O=c1n(CCCCN2CC=C(c3ccccc3)CC2)c2ccccc2n1CCN1CCCCC1 [Compound 29] | 83% | 57% |  |  |
| O=c1n(CCCCN2CCN(c3ccc(Cl)c(Cl)c3)CC2)c2ccccc2n1CCN1CCCCC1 [Compound 30] | 90% | 44% |  |  |
| COc1ccccc1N1CCN(CCCCn2c(=O)n(CCN3CCCCC3)c3ccccc32)CC1 [Compound 38] | 78% | 92% |  |  |
| O=c1n(CCCCN2CCN(c3ccccc3)CC2)c2ccccc2n1CCN1CCOCC1 [Compound 39] | 42% | 36% |  |  |
| O=c1n(CCCCN2CCN(c3cccc(Cl)c3)CC2)c2ccccc2n1CCN1CCOCC1 [Compound 43] | 55% | 104% |  |  |
| O=c1n(CCO)c2ccccc2n1CCCCN1CC=C(c2ccccc2)CC1 [Compound 65] | 74% | 52% |  |  |
| O=c1n(C/C=C\CN2CC=C(c3ccccc3)CC2)c2ccccc2n1CCO [Compound 370] |  |  |  | 4.4 nM |
| CS(=O)(=O)NCCn1c(=O)n(C/C=C\CN2CC=C(c3ccccc3)CC2)c2ccccc21 [Compound 504] |  |  |  | 3.6 nM |

More lines, main results first:

| D4 Receptor Binding Assay % inhibition (10^−7 M) (D4 human receptors) | 5-HT1A Receptor Binding Assay % inhibition (10^−7 M) (5-HT1A; CHO membranes, human 5-HT1A) | IC50 (5-HT1A; [1]) | SMILES | IC50 (5-HT1A) |
| --- | --- | --- | --- | --- |
| 71% | 63% |  | O=c1n(CCO)c2ccccc2n1CCCCN1CCN(c2ccccc2)CC1 [Compound 56] |  |
| 51% | 75% |  | O=c1n(CCO)c2ccccc2n1CCCCN1CCN(c2ccccn2)CC1 [Compound 59] |  |
| 99% | 65% |  | O=c1n(CCO)c2ccccc2n1CCCCN1CCN(c2ccc(Cl)c(Cl)c2)CC1 [Compound 66] |  |
|  |  | 8.2 nM | COCCn1c(=O)n(C/C=C/CN2CCN(c3ccccn3)CC2)c2ccccc21 [Compound 296] |  |
|  |  | 15 nM | O=c1n(C/C=C\CN2CCN(c3ccccc3)CC2)c2ccccc2n1CCN1CCCCC1 [Compound 310] |  |
|  |  | 3.1 nM | O=c1n(C/C=C\CN2CCN(c3cccc(C(F)(F)F)c3)CC2)c2ccccc2n1CCN1CCCCC1 [Compound 318] |  |
|  |  | 7.9 nM | O=c1n(C/C=C/CN2CCN(c3ccccn3)CC2)c2ccccc2n1CCN1CCCCC1 [Compound 330] |  |
|  |  | 16 nM | O=c1n(C/C=C/CN2CCc3c([nH]c4ccccc34)C2)c2ccccc2n1CCN1CCCCC1 [Compound 333] |  |
|  |  | 3.5 nM | O=c1n(C/C=C/CN2CCN(c3cccc(C(F)(F)F)c3)CC2)c2ccccc2n1CCN1CCCCC1 [Compound 335] |  |
|  |  | 13 nM | O=c1n(C/C=C/CN2CCN(c3ccccn3)CC2)c2ccccc2n1CCN1CCOCC1 [Compound 347] |  |
|  |  | 4.1 nM | O=c1n(C/C=C/CN2CCN(c3cccc(C(F)(F)F)c3)CC2)c2ccccc2n1CCN1CCOCC1 [Compound 352] |  |
|  |  | 3.5 nM | O=c1n(C/C=C\CN2CCN(c3cccc(C(F)(F)F)c3)CC2)c2ccccc2n1CCO [Compound 369] |  |
|  |  | 44 nM | O=c1n(C/C=C/CN2CCN(c3ccccn3)CC2)c2ccccc2n1CCO [Compound 381] |  |
|  |  | 14 nM | CCNC(=O)OCCn1c(=O)n(C/C=C/CN2CCN(c3ccccn3)CC2)c2ccccc21 [Compound 415] |  |
|  |  | 7.9 nM | CCNC(=O)OCCn1c(=O)n(C/C=C/CN2CCN(c3cccc(Cl)c3)CC2)c2ccccc21 [Compound 416] |  |
|  |  | 7.3 nM | CC(=O)NCCn1c(=O)n(CCN2CCN(c3cccc(C)c3C)CC2)c2ccccc21 [Compound 446] |  |
|  |  | 8.8 nM | CC(=O)NCCn1c(=O)n(C/C=C\CN2CCN(c3cccc(C(F)(F)F)c3)CC2)c2ccccc21 [Compound 459] |  |
|  |  | 3.1 nM | CC(=O)NCCn1c(=O)n(C/C=C\CN2CCN(c3cccc(C)c3C)CC2)c2ccccc21 [Compound 468] |  |
|  |  | 3.1 nM | CC(=O)NCCn1c(=O)n(C/C=C\CN2CCN(c3ccccc3Cl)CC2)c2ccccc21 [Compound 472] |  |
|  |  | 2.8 nM | CS(=O)(=O)NCCn1c(=O)n(C/C=C\CN2CCN(c3cccc(C(F)(F)F)c3)CC2)c2ccccc21 [Compound 503] |  |
|  |  | 0.59 nM | Cc1cccc(N2CCN(C/C=C\Cn3c(=O)n(CCNS(C)(=O)=O)c4ccccc43)CC2)c1C [Compound 512] |  |
|  |  | 8.1 nM | CS(=O)(=O)NCCn1c(=O)n(C/C=C/CN2CCN(c3ccccn3)CC2)c2ccccc21 [Compound 520] |  |
|  |  | 9.5 nM | Cc1cccc(N2CCN(C/C=C/Cn3c(=O)n(CCNS(C)(=O)=O)c4ccccc43)CC2)c1 [Compound 536] |  |

Source: patent US6521623B1, “N,N'-disubstituted benzimidazolone derivatives with affinity at the serotonin and dopamine receptors” (Boehringer Ingelheim Pharma KG, priority 2000, dated 2003)
